According to patent publication US9346778B2, “Carbofluorescein lactone ion indicators and their applications” (AAT Bioquest, Inc., priority 2007, dated 2016):
Entries after “also recorded” stand apart in the source; their conditions may differ.

Legend:
[1] = Spectral property comparison (excitation and emission wavelength) of indicator acids; format: physicochemical
From the text: The red-shift excitation and emission wavelengths provide a great advantage for the use of current invention in the high throughput screening of new drug candidates since there are many fluorescent compounds of short wavelength in the screening compound libraries. Fluo-3 AM and Fluo-4 AM are currently used in the high throughput screening of new drug candidates, but their short wavelength overlap with the fluorescence of some fluorescent compounds in the screening compound libraries, causing severe interference.

[2] = system: CHO cells stably transfected with muscarinic receptor 1; experiment: Calcium flux assay in cells loaded with indicator AM ester, ATP stimulation, microplate reader or imaging; format: cell-based; settings: compared with Fluo-4 AM
Description: In yet another aspect of the invention, the fluorescent ion indicators are used in a method to measure calcium flux. Cells (e.g., CHO cells) stably transfected with muscarinic receptor 1 are plated—e.g., at 60,000 cells per 100 μl per well in F12 with 5% FBS and 1% glutamine in a 96-well black wall/clear bottom Costar plate—and incubated (e.g., in 5% CO2 at 37° C. overnight). The growth medium is removed and the cells are incubated with a fluorescent ion indicator (e.g., with 100 μl/well of 1-8 μM Fluo-4 AM or Compound 85 in Hanks and HEPES buffer for 1 hour at room temperature) with or without probenecid. […]
Calcium flux assays are preferred methods in drug discovery for screening G protein coupled receptors (GPCR). The fluorescent indicators of the invention provide a homogeneous fluorescence-based assay for detecting the intracellular calcium mobilization. […] When the sample cells are stimulated with screening compounds, the receptor triggers a release of intracellular calcium, which then greatly increases the fluorescence of the intracellular indicators. The combination of long wavelength fluorescence properties, high sensitivity, and often a >100 times increase in fluorescence upon binding with calcium makes the disclosed indicators well-suited for measurement of cellular calcium. […]

[3] = system: CHO cells; experiment: Cell-induced absorption spectral shift of indicator AM esters, absence vs presence of CHO cells; format: cell-based; settings: for Cell-Induced Excitation Wavelength Shift (nm): absence vs presence of CHO cells
From the text: (§1) FIG. 7. The cell-induced absorption spectral shift comparison of Fluo-3 AM and Compound 16. The absorption spectra are normalized at their maximum absorption peak. Solid lines represent the absorption spectra of Compound 16 in the absence of CHO cells (left) and in the presence of CHO cells (right) respectively. Dot lines represent the absorption spectra of Fluo-3 AM in the absence of CHO cells (left) and in the presence of CHO cells (right) respectively.
as §1, with “8.” for “7.”, “Fluo-4” for “Fluo-3”, “85.” for “16.”, “85” for “16”
Fluo-3 AM and Fluo-4 AM are predominantly used for monitoring intracellular calcium signal. However, Fluo-3 AM, Fluo-4 AM and their cell-hydrolyzed products (Fluo-3 and Fluo-4) can be simultaneously excited by the same excitation source (see FIGS. 7 and 8), causing high assay background. The present application is directed to a family of fluorescent dyes that are useful for preparing fluorescent metal ion indicators. The indicators include a carbofluorescein lactone fluorophore that is incorporated with an ionophore, and are useful for the detection, discrimination and quantification of metal cations.
In one aspect of the invention, the disclosed calcium indicators have the minimal assay background in their masked form since their non-hydrolyzed AM esters cannot be excited in the range of visible wavelengths. […] The fluorescence outside cells generates the detrimental assay background. It is evident that the calcium indicators of the invention (e.g., Compound 16) have unexpected spectral properties that enable more sensitive detection of calcium in cells compared to the existing fluorescein-based calcium indicators (such as Fluo-3 AM).
It is evident that the calcium indicators of the invention (e.g., Compound 85) have unexpected spectral properties that enable more sensitive detection of calcium in cells compared to the existing fluorescein-based calcium indicators (such as Fluo-4 AM).

[4] = Calcium response of indicator measured in fluorescence excitation/emission in PBS buffer; format: binding; settings: 5 μM in PBS buffer, excited at 555 nm
Description: FIG. 5. Calcium responses of Compound 79 (5 μM) measured in fluorescence excitation in PBS buffer solution. The calcium concentrations are indicated in the graph in the unit of μM.
FIG. 6. Calcium responses of Compound 79 (5 μM) measured in fluorescence emission in PBS buffer solution. The calcium concentrations are indicated in the graph in the unit of μM.

Emission Wavelength (nm) [1] [nm] | Excitation Wavelength (nm) [1] [nm] | Residual absorption of dye AM at the maximum excitation of dye acid [3] [%] | Cell-Induced Excitation Wavelength Shift (nm) [3] [nm] | Compound | further results
515 | 493 |  |  | Cc1ccc(N(CC(=O)O)CC(=O)O)c(OCCOc2cc(-c3c4cc(F)c(=O)cc-4oc4cc(O)c(F)cc34)ccc2N(CC(=O)O)CC(=O)O)c1 [Fluo-4, reference compound] | 
 |  | 7.8 | 38 | CC(=O)OCOC(=O)CN(CC(=O)OCOC(C)=O)c1ccc(C)cc1OCCOc1cc(-c2c3cc(F)c(=O)cc-3oc3cc(OCOC(C)=O)c(F)cc23)ccc1N(CC(=O)OCOC(C)=O)CC(=O)OCOC(C)=O [Fluo-4 AM, reference compound] | absorption of masked AM form at excitation wavelength ([3]; at 488 nm): substantial absorption
526 | 504 |  |  | Cc1ccc(N(CC(=O)O)CC(=O)O)c(OCCOc2cc(-c3c4cc(Cl)c(=O)cc-4oc4cc(O)c(Cl)cc34)ccc2N(CC(=O)O)CC(=O)O)c1 [Fluo-3, reference compound] | 

The remaining lines, values behind:

Compound | Emission Wavelength (nm) [1] [nm] | Excitation Wavelength (nm) [1] [nm] | Residual absorption of dye AM at the maximum excitation of dye acid [3] [%] | Cell-Induced Excitation Wavelength Shift (nm) [3] [nm] | further results
Cc1ccc(N(CC(=O)O)CC(=O)O)c(OCCOc2cc(C3=C4C=C(Cl)C(=O)C=C4C(C)(C)c4cc(O)c(Cl)cc43)c(C(=O)O)cc2N(CC(=O)O)CC(=O)O)c1 [Compound 11] | 584 | 558 |  |  | 
CC(=O)OCOC(=O)CN(CC(=O)OCOC(C)=O)c1ccc(C)cc1OCCOc1cc2c(cc1N(CC(=O)OCOC(C)=O)CC(=O)OCOC(C)=O)C(=O)OC21c2cc(F)c(OC(C)=O)cc2C(C)(C)c2cc(OC(C)=O)c(F)cc21 [Compound 85] |  |  | 0 | 277 | fluorescence intensity enhancement upon calcium stimulation ([2]; absence of probenecid): much greater than that of Fluo-4 AM; also recorded: better fluorescence intensity enhancement upon calcium stimulation than that of Fluo-4 AM; loading into cells [2]: load into cells much better than Fluo-4 AM; absorption of masked AM form at excitation wavelength ([3]; at 555 nm): essentially no absorption
Cc1ccc(N(CC(=O)O)CC(=O)O)c(OCCOc2cc(C3=C4C=C(F)C(=O)C=C4C(C)(C)c4cc(O)c(F)cc43)c(C(=O)O)cc2N(CC(=O)O)CC(=O)O)c1 [Compound 79] | 582 | 554 |  |  | calcium binding [4]: binds calcium
CC(=O)OCOC(=O)CN(CC(=O)OCOC(C)=O)c1ccc(C)cc1OCCOc1cc(-c2c3cc(Cl)c(=O)cc-3oc3cc(OCOC(C)=O)c(Cl)cc23)ccc1N(CC(=O)OCOC(C)=O)CC(=O)OCOC(C)=O [Fluo-3 AM, reference compound] |  |  | 7.6 | 36 | absorption of masked AM form at excitation wavelength ([3]; at 488 nm): substantial absorption
CC(=O)OCOC(=O)CN(CC(=O)OCOC(C)=O)c1ccc(C)cc1OCCOc1cc2c(cc1N(CC(=O)OCOC(C)=O)CC(=O)OCOC(C)=O)C(=O)OC21c2cc(Cl)c(OC(C)=O)cc2C(C)(C)c2cc(OC(C)=O)c(Cl)cc21 [Compound 16] |  |  | 0 | 278 | absorption of masked AM form at excitation wavelength ([3]; at 555 nm): essentially no absorption
